# Source: patent US20260272895A1, “METHODS AND KITS FOR DELIVERY OF COMPOUNDS INTO CELLS” (Yale University, priority 2023, published 2026)
# Biological target: T1, SLCO1A2 (Homo sapiens, UniProt P46721)
# T1 sequence (P46721 1-670): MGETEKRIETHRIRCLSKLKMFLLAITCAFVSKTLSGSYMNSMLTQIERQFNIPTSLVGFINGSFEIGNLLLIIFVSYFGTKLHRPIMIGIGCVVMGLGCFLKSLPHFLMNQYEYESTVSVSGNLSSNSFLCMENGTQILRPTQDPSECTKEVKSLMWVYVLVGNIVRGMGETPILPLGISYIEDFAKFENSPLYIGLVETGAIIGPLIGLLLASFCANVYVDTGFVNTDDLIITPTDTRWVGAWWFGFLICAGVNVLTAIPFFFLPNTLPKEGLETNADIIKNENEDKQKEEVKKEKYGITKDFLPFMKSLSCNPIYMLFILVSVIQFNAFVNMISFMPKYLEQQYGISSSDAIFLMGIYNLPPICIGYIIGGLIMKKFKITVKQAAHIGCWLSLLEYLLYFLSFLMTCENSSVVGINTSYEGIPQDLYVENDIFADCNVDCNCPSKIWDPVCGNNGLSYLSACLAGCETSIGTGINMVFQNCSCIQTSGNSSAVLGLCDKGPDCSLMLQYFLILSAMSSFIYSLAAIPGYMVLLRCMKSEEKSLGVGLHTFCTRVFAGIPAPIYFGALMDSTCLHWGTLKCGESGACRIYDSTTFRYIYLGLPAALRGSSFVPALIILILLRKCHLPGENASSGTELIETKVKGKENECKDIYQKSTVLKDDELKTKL
# Experiment: Uptake by cells ectopically expressing SLCO1A2 (in utero electroporation or AAV8) in live mice
# Assay type: in vivo, mouse
# Set-up: P2A:EGFP (AAV8 construct only; EGFP is separated at P2A) (C, cleaved yes); FLAG (in utero electroporation plasmid only); host or cells: cortical neurons of live mice (AAV8 subarachnoid infusion or in utero electroporation)
# Details: topical cortical administration (50 μM where stated)
# Experimental: IUE is performed at E14 or E15 as previously done. Briefly, timed pregnant mice are anaesthetized with ketamine/xylazine. The abdominal region is shaved, sterilized and a 3 cm midline incision is made in the skin and abdominal muscle. The uterine horns are exposed, and the lateral ventricle of each embryo is pressure injected (Picospritzer II, General Valve) with plasmid DNA (~[…] volume per embryo) at a concentration of […] followed by electroporation with tweezertrodes (50 V, 4-50 ms pulses with I s pulse interval. BTX Harvard Apparatus). The embryos are placed back in the mother womb, and the muscle and skin are sutured. Electroporated pups are aged to postnatal day 30. Imaging is performed through a craniotomy over the transfected hemisphere following dye labeling.
# The Adeno-associated virus (AAV) for expression of SLCO1A2 was custom-made (VectorBuilders). Briefly, The AAV8 virus carrying the pAAV-CAG>hSLCO1A2:P2A:EGFP construct was produced by cloning the hSLCO1A2 gene variant downstream of the CAG promoter in the pAAV8 expression vector. A P2A sequence was inserted to link the hSLCO1A2 gene with the EGFP coding sequence. The constructed vector was transfected into HEK293 cells, and the virus produced was harvested and ultra-purified for a final titer >10^13 GC/mL. AAV virus were injected into the mouse subarachnoid space using a previously described method. Briefly, mice were anesthetized with ketamine-xylazine. A skull window, approximately 1 mm in diameter, was created using a high-speed drill at coordinates 6 mm anteroposterior and 3 mm mediolateral from bregma. Subsequently, a 30-gauge needle was carefully used to lift a small piece of thinned skull, exposing the underlying dura. The stock solutions of AAV were diluted in fresh sterile phosphate-buffered saline (PBS) solution (1:20, v/v) at room temperature, then kept on ice and adjusted to a titer of 10^12 GC/mL. The AAV solutions were loaded into a Tygon tube, connected to a polypropylene tip with an outer diameter of 70 μm, which was further attached to a programmable syringe pump with a Hamilton syringe. […]
Structure (SMILES),uptake by neurons ectopically expressing SLCO1A2,uptake by neurons ectopically expressing SLCO1A2 (listed as Colchicine-eEDITS),uptake by neurons ectopically expressing SLCO1A2 (listed as Colchicine-eEDiTS)
"O=S(=O)([O-])c1cc(S(=O)(=O)O)ccc1C1=c2cc3c4c(c2Oc2cc(Br)ccc21)CCC[N+]=4CCC3 [Compound 1, 2-(12-bromo-1,2,3,5,6,7-hexahydrochromeno[2,3-f]pyrido[3,2,1-ij]quinolin-4-ium-9-yl)-5-sulfobenzenesulfonate]",only those cells that express SLCO1A2 or SLCO1A4 (as evidenced by the GFP fluorescence (green)) take up compound 1,,
"COc1cc2c(c(OC)c1OC)-c1ccc(OC)c(=O)cc1C(NS(=O)(=O)c1ccc(-c3c4ccc(N(C)C)cc4[o+]c4cc(N(C)C)ccc34)c(S(=O)(=O)[O-])c1)CC2 (stereo not drawn) [Compound 47, 2-(3,6-bis(dimethylamino)xanthylium-9-yl)-5-(N-(1,2,3,10-tetramethoxy-9-oxo-5,6,7,9-tetrahydrobenzo[a]heptalen-7-yl)sulfamoyl)benzenesulfonate]",,robust uptake by cells expressing SLCO1A2,marked uptake
